Laboratory results reported in US20170296491A1, “PHARMACEUTICAL COMPOSITIONS COMPRISING LEVODOPA AMIDE AND USES THEREOF” (priority 2015, published 2017).

Key:
[1] = Plasma levels of LDA and LD after intravenous LDA-HCl in mice; format: in vivo
Method: (§1) The purpose of this experiment was to determine the plasma levels of LDA and LD following intravenous (IV) and oral (PO) administration of LDA-HCl in CD-1 mice.
(§2) CD-1 mice which were prepared for oral administration had to undergo fasting overnight prior to the dosing. The orally treated mice received food only 2 hour post-dosing. The method used to dose orally was oesophagotubage, and the IV mice were injected via a jugular vein under anesthesia (Isoflurane/O2). LDA-HCl solutions were dissolved in citrate buffer and LD/CD solution was prepared according to International Publication No. WO 2010/134074.
(§3) Blood samples were collected following the oral and IV dosing at pre-determined time points and plasma levels of LDA and LD were analysed by LC-MS-MS.

[2] = peripheral administration; cited from earlier work
[3] = Physical stability of LDA-HCl solutions with or without added CD-Arg formulation; format: physicochemical; settings: 0.75% CD; CD:Arg 1:1.25; LDA:HCl 1:0.92; pH 5.69; time points not separated
Method: HCl solutions at 3 different concentrations containing 0.3% Tween 80 were added to LDA to obtain solutions having a final LDA concentration of 200 mg/ml and a molar ratio of 1:0.89, 1:0.92 and 1:0.95 LDA:HCl. CD-Arg formulation (CD:Arg molar ratio 1:1.25) was prepared in Tween 80 0.3% and was added gradually under stirring to 4 volumes of each of the 3 LDA-HCl solutions. The physical stability of the solutions was evaluated (Table 15). As shown, the addition of CD to LDA-HCl solutions yielded stable solutions if added to LDA-HCl solutions having a pH>3.8, preferably pH >4.6.

[4] = Plasma pharmacokinetics of LDA and LD after oral LDA-HCl with and without CD in rats; format: in vivo; settings: oral LDA-HCl 25 mg/kg
Method: The purpose of this experiment was to determine the plasma pharmacokinetics of LDA and LD following oral administration of LD or LDA-HCl with and without CD in Wistar rats.
Wistar rats underwent fasting overnight prior to the dosing and received food only 2 hour post-dosing. The method used to dose orally was via oesophagotubage. Solutions were prepared as described above.

[5] = Plasma levels of LDA and LD after oral LDA-HCl in mice; format: in vivo
Method: as §1, §2, §3

[6] = Solubility of LDA in water in the absence of an acid; format: physicochemical; settings: water with and without 0.3% Tween-80, absence of an acid; data not shown
Excerpt: LDA in water with and without 0.3% Tween-80, at concentrations greater than 2.5% (data not shown), is not soluble in the absence of an acid.

[7] = Effect of preparation method and pH on stability of LDA-HCl/CD formulations; format: physicochemical; settings: 5 days at room temperature (Table 7)
Method: LDA-HCl/CD formulations were prepared by the following methods, and were then tested for stability. Method 1. Carbidopa (CD, powder) [Teva Pharmaceuticals Ltd., Israel] was added to LDA-HCl solution. […] Precipitation occurred at room temperature. Method 2. Liquid CD formulations were prepared by weighting CD [Teva Pharmaceuticals Ltd., Israel] in a suitable container with different L-arginine [Merck] weights to obtain a final concentration of 0.8% CD (wet form, 0.75% dry form) in different molar ratios to arginine (Table 6). CD formulations were prepared as described in the International Publication No. WO 2010/134074. LDA-HCl (powder) was added to CD solutions to attain the final desired concentration of LDA-HCl/CD formulations. Method 3. CD solutions (40 mg/ml, prepared as described in the International Publication No. WO 2010/134074) were mixed with LDA-HCl solutions to attain the final desired concentration of LDA/CD formulations. The LDA-HCl formulations were prepared by dissolving 200, 160 or 120 mg/ml of LDA-HCl in 40 mM citric buffer. The chemical stability of 7 LDA-HCl/CD formulations was evaluated by HPLC analysis at t0 and after 5 days at room temperature. The recovery after 5 days at room temperature was calculated compared to t0 (Table 7).

[8] = Dissolution and stability of LDA in organic acid solutions; format: physicochemical; settings: for Chemical stability after 3 days at RT: in % (unit assumed)
Method: The effect of organic acids on the stability of LDA solution was evaluated. Formulations were prepared by adding small aliquots of organic acid solutions, 100-300 μl, to ˜240 mg LDA until full dissolution while pH was monitored. The end point of acid addition was decided by appearance and/or by pH and/or total volume. LDA concentration was determined by HPLC.

[9] = Stability of LDA 200 mg/ml solution with HCl; format: physicochemical
Method: The effect of HCl, representing an inorganic acid, on the stability of LDA solution was evaluated. HCl solution containing 0.3% Tween 80 was added to LDA to obtain a solution having a final LDA concentration of 200 mg/ml and a molar ratio of about 1:1 LDA:HCl. The physical stability of the solution and the chemical stability of LDA were evaluated (Table 13). As shown, LDA (200 mg/ml) is stable for at least 9 days in solution containing HCl at a molar ratio of about 1:1.

In the case of N[C@@H](Cc1ccc(O)c(O)c1)C(=O)O [LD, L-3,4-dihydroxyphenylalanine, reference compound], the LD plasma level ([1]; IV LDA-HCl 20 mg/kg, 3 h thereafter) is listed as “below limit of quantification” and the “share of administered levodopa that enters the brain unaltered” value [2] is listed as 1-3%.
For NC(=O)C(N)Cc1ccc(O)c(O)c1 (stereo not drawn) [LDA, 2-amino-3-(3,4-dihydroxyphenyl)propanamide], the Precipitations [3] was “Slight”, the “metabolism of LDA to LD” value [4] was “rapidly metabolized to LD” and the bioavailability ([5]; administered orally) was “low”. The “metabolism of LDA to LD” value ([5]; oral administration of LDA-HCl 20 mg/kg) was “rapidly metabolized to LD”, the “soluble concentration in water” value [6] was no more than 2.5% and the LDA plasma level ([1]; IV LDA-HCl 20 mg/kg, 1 h thereafter) was “below limit of quantification”. The “metabolism of LDA to LD” value ([1]; IV administration of LDA-HCl 20 mg/kg) was “rapidly metabolized to LD”, the “half-life of LDA compared with LD” value ([1]; IV and oral administration of LDA-HCl) was “shorter than that of LD” and the “chemical stability in LDA-HCl/CD formulations” value [7] was “pH-dependent”. The “Chemical stability after 3 days at RT” value ([8]; Acetic acid, LDA:acid 1:1.2, pH 5.0) was 98.4, the “Chemical stability after 3 days at RT” value ([8]; Citric acid, LDA:acid 1:08, pH 2.8) was 99.3 and the “time physically and chemically stable at RT” value ([8]; LDA dissolved in organic acid solutions) was “at least 3 days”. For the same molecule, the “Chemical stability after 3 days at RT” value ([8]; Succinic acid, LDA:acid 1:0.5, pH 5.7) was 99.1, the “Chemical stability after 3 days at RT” value ([8]; Tartaric acid, LDA:acid 1:0.6, pH 3.8) was 100.5 and the “LDA” value ([8]; dissolved with Acetic acid, pH 5.0) was 199 mg/mL. For the same molecule, the “LDA” value ([8]; dissolved with Citric acid, pH 2.8) was 236 mg/mL, the “LDA” value ([8]; dissolved with Citric acid, pH 5.6) was 175 mg/mL and the “LDA” value ([8]; dissolved with Glutamic acid, pH 5.8) was 128 mg/mL. For the same molecule, the “LDA” value ([8]; dissolved with Succinic acid, pH 5.7) was 194 mg/mL, the “LDA” value ([8]; dissolved with Tartaric acid, pH 3.8) was 334 mg/mL and the “time stable in solution” value ([9]; HCl at a molar ratio of about 1:1) was “at least 9 days”. The “Chemical stability of LDA 9 days” value ([9]; LDA:HCl molar ratio 1:0.94, pH 5.81, 0.3% Tween 80, in % (unit assumed)) was 100.1.
